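Briefly, cells in 96-well plates were exposed to five compound concentrations for 48 h, and endpoints were estimated by linear interpolation. The concentration for 50% growth inhibition is given as GI50.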 Activity calls are given as the source filed them. Rule as the data show it: active = GI50 up to about 1.1 µM and inactive = higher.
Tests used:
Experiment in all cases: DTP human tumour cell line panel, 48 h
A498 = system: A498
A549 = system: A549
ACHN = system: ACHN
BT-549 = system: BT-549
CAKI-1 = system: CAKI-1
CCRF-CEM = system: CCRF-CEM
COLO 205 = system: COLO 205
DU-145 = system: DU-145
EKVX = system: EKVX
HCC 2998 = system: HCC 2998
HCT-116 = system: HCT-116
HCT-15 = system: HCT-15
HL-60 = system: HL-60
HOP-62 = system: HOP-62
HOP-92 = system: HOP-92
HT-29 = system: HT-29
Hs-578T = system: Hs-578T
IGROV-1 = system: IGROV-1
K562 = system: K562
KM12 = system: KM12
LOX IMVI = system: LOX IMVI
M14 = system: M14
MCF7 = system: MCF7
MDA-MB-231 = system: MDA-MB-231
MDA-MB-435 = system: MDA-MB-435
MDA-N = system: MDA-N
MOLT-4 = system: MOLT-4
Malme-3M = system: Malme-3M
NCI-H226 = system: NCI-H226
NCI-H23 = system: NCI-H23
NCI-H460 = system: NCI-H460
NCI-H522 = system: NCI-H522
NCI/ADR-RES = system: NCI/ADR-RES
OVCAR-3 = system: OVCAR-3
OVCAR-4 = system: OVCAR-4
OVCAR-5 = system: OVCAR-5
OVCAR-8 = system: OVCAR-8
PC-3 = system: PC-3
RPMI-8226 = system: RPMI-8226
RXF 393 = system: RXF 393
SF-268 = system: SF-268
SF-539 = system: SF-539
SK-MEL-28 = system: SK-MEL-28
SK-MEL-2 = system: SK-MEL-2
SK-MEL-5 = system: SK-MEL-5
SK-OV-3 = system: SK-OV-3
SN12C = system: SN12C
SNB-19 = system: SNB-19
SNB-75 = system: SNB-75
SR = system: SR
SW-620 = system: SW-620
T47D = system: T47D
TK-10 = system: TK-10
U-251 = system: U-251
UACC-257 = system: UACC-257
UACC-62 = system: UACC-62
UO-31 = system: UO-31
786-0 = system: 786-0
SF-295 = system: SF-295

NC(Cc1ccc(OCc2ccccc2)cc1)C(=O)NC(Cc1ccccc1)C(=O)Oc1c(Cl)c(Cl)c(Cl)c(Cl)c1Cl (centres undefined)
GI50 (A498): 20.9 µM (inactive)
GI50 (A549): 18.4 µM (inactive)
GI50 (ACHN): 16.5 µM (inactive)
GI50 (BT-549): 17.5 µM (inactive)
GI50 (CAKI-1): 16.7 µM (inactive)
GI50 (CCRF-CEM): > 100 µM (inactive)
GI50 (COLO 205): 14.6 µM (inactive)
GI50 (DU-145): 12.8 µM (inactive)
GI50 (EKVX): 17.7 µM (inactive)
GI50 (HCC 2998): 19.1 µM (inactive)
GI50 (HCT-116): 17.5 µM (inactive)
GI50 (HCT-15): 16.4 µM
GI50 (HL-60): 69.5 µM (inactive)
GI50 (HOP-62): 16.6 µM (inactive)
GI50 (HOP-92): 11.9 µM (inactive)
GI50 (HT-29): 17.5 µM (inactive)
GI50 (Hs-578T): 14 µM (inactive)
GI50 (IGROV-1): 15.3 µM (inactive)
GI50 (K562): 53.1 µM (inactive)
GI50 (KM12): 15.4 µM (inactive)
GI50 (LOX IMVI): 14 µM (inactive)
GI50 (M14): 14.2 µM (inactive)
GI50 (MCF7): 19 µM (inactive)
GI50 (MDA-MB-231): 13 µM (inactive)
GI50 (MDA-MB-435): 18.3 µM (inactive)
GI50 (MDA-N): 12.7 µM (inactive)
GI50 (MOLT-4): 39.2 µM (inactive)
GI50 (Malme-3M): 20.9 µM (inactive)
GI50 (NCI-H226): 13.2 µM (inactive)
GI50 (NCI-H23): 16.8 µM (inactive)
GI50 (NCI-H460): 14.7 µM (inactive)
GI50 (NCI-H522): 23.1 µM (inactive)
GI50 (NCI/ADR-RES): 17.9 µM (inactive)
GI50 (OVCAR-3): 15.5 µM (inactive)
GI50 (OVCAR-4): 17.4 µM (inactive)
GI50 (OVCAR-5): 15.6 µM (inactive)
GI50 (OVCAR-8): 16.5 µM (inactive)
GI50 (PC-3): 17.7 µM (inactive)
GI50 (RPMI-8226): 40.9 µM (inactive)
GI50 (RXF 393): 15 µM (inactive)
GI50 (SF-268): 20.3 µM (inactive)
GI50 (SF-539): 16.7 µM (inactive)
GI50 (SK-MEL-28): 16.5 µM (inactive)
GI50 (SK-MEL-2): 13.3 µM (inactive)
GI50 (SK-MEL-5): 17.3 µM (inactive)
GI50 (SK-OV-3): 14.7 µM (inactive)
GI50 (SN12C): 17.3 µM (inactive)
GI50 (SNB-19): 17.7 µM (inactive)
GI50 (SNB-75): 15.7 µM (inactive)
GI50 (SR): 54.1 µM (inactive)
GI50 (SW-620): 16.8 µM (inactive)
GI50 (T47D): 17.9 µM (inactive)
GI50 (TK-10): 15.3 µM (inactive)
GI50 (U-251): 17.1 µM (inactive)
GI50 (UACC-257): 15.9 µM (inactive)
GI50 (UACC-62): 17 µM (inactive)
GI50 (UO-31): 16.4 µM (inactive)

CC1C(C#N)(C#N)C(C#N)=C(N)C1(Cl)[N+](=O)[O-] (centres undefined)
GI50 (786-0): 5.48 µM (inactive)
GI50 (A498): 17.4 µM (inactive)
GI50 (A549): 21.7 µM (inactive)
GI50 (ACHN): 11.3 µM (inactive)
GI50 (BT-549): 13.3 µM (inactive)
GI50 (CAKI-1): 5.4 µM (inactive)
GI50 (CCRF-CEM): 2.18 µM (inactive)
GI50 (COLO 205): 4.9 µM (inactive)
GI50 (DU-145): 16.7 µM (inactive)
GI50 (EKVX): 17.8 µM (inactive)
GI50 (HCC 2998): 17.3 µM (inactive)
GI50 (HCT-116): 7.19 µM (inactive)
GI50 (HCT-15): 3.39 µM
GI50 (HL-60): 2.37 µM (inactive)
GI50 (HOP-62): 3.08 µM (inactive)
GI50 (HOP-92): 2.08 µM (inactive)
GI50 (HT-29): 9.04 µM (inactive)
GI50 (Hs-578T): 16.1 µM (inactive)
GI50 (IGROV-1): 7.45 µM (inactive)
GI50 (K562): 2.88 µM (inactive)
GI50 (KM12): 18.7 µM (inactive)
GI50 (LOX IMVI): 5.32 µM (inactive)
GI50 (M14): 5.07 µM (inactive)
GI50 (MCF7): 17.2 µM (inactive)
GI50 (MDA-MB-231): 13.2 µM (inactive)
GI50 (MDA-MB-435): 16.7 µM (inactive)
GI50 (MDA-N): 9.04 µM (inactive)
GI50 (MOLT-4): 1.72 µM (inactive)
GI50 (Malme-3M): 5.71 µM (inactive)
GI50 (NCI-H226): 17.1 µM (inactive)
GI50 (NCI-H23): 18.7 µM (inactive)
GI50 (NCI-H522): 2.3 µM (inactive)
GI50 (NCI/ADR-RES): 16 µM (inactive)
GI50 (OVCAR-3): 10 µM (inactive)
GI50 (OVCAR-4): 12.8 µM (inactive)
GI50 (OVCAR-5): 14.9 µM (inactive)
GI50 (OVCAR-8): 14.9 µM (inactive)
GI50 (PC-3): 17.7 µM (inactive)
GI50 (RPMI-8226): 11.2 µM (inactive)
GI50 (RXF 393): 4.33 µM (inactive)
GI50 (SF-268): 14.9 µM (inactive)
GI50 (SF-295): 18.8 µM (inactive)
GI50 (SF-539): 11.5 µM (inactive)
GI50 (SK-MEL-2): 25.6 µM (inactive)
GI50 (SK-MEL-5): 12.1 µM (inactive)
GI50 (SK-OV-3): 17 µM (inactive)
GI50 (SN12C): 8.18 µM (inactive)
GI50 (SNB-19): 19.3 µM (inactive)
GI50 (SNB-75): 11.7 µM (inactive)
GI50 (SR): 5.01 µM (inactive)
GI50 (SW-620): 2.17 µM (inactive)
GI50 (T47D): 15.7 µM (inactive)
GI50 (TK-10): 14.9 µM (inactive)
GI50 (U-251): 17.1 µM (inactive)
GI50 (UACC-257): 12 µM (inactive)
GI50 (UACC-62): 11.4 µM (inactive)
GI50 (UO-31): 15.5 µM (inactive)

From ChEMBL document CHEMBL1201862, “PubChem BioAssay data set” (2004)
